The structures appear in SMILES notation. Where two headings read alike, the source gives them in different places.

Consider 20 compounds from patent publication US20060089378A1 (priority 2004, published 2006).

One experiment has as its target T1, Cannabinoid CB1 Receptor (Homo sapiens, UniProt P21554).
T1 construct: expressed in transfected cells
The experiment is described as follows: Binding assay for CB1 agonists or inverse agonists (radioligand competition, membranes of transfected SK-N-MC cells). On the technique in general: Displacement assays read how much labelled ligand stays bound in the presence of the test substance.

In the next experiment the target is T2, Cannabinoid CB2 Receptor (Homo sapiens, UniProt P34972).
T2 construct: expressed in transfected cells
The experiment is described as follows: Binding assay for CB2 agonists or inverse agonists (radioligand competition, membranes of transfected SK-N-MC cells). The following applies: for inhibition at 0.2 µM: read-out: Cannabinoid CB2 Receptor Binding percent inhibition.

The next experiment addresses CB1 receptor (human) (Homo sapiens, UniProt P21554). The experiment in a line: cell-based.
Setting [1] is: test concentration of 0.2 μM, compounds without an IC50 binding value.

T2 sequence (P34972 whole entry): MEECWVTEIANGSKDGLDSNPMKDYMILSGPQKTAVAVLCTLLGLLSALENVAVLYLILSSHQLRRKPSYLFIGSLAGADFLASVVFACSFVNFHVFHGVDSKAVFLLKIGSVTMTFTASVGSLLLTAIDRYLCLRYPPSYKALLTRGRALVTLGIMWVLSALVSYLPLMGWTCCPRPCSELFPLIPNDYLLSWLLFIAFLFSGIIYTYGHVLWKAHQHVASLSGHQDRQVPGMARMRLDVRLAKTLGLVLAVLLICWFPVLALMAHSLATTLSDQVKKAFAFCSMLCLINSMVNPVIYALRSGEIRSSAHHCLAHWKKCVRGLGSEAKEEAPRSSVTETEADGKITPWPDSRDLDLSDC
T1 sequence (P21554 whole entry): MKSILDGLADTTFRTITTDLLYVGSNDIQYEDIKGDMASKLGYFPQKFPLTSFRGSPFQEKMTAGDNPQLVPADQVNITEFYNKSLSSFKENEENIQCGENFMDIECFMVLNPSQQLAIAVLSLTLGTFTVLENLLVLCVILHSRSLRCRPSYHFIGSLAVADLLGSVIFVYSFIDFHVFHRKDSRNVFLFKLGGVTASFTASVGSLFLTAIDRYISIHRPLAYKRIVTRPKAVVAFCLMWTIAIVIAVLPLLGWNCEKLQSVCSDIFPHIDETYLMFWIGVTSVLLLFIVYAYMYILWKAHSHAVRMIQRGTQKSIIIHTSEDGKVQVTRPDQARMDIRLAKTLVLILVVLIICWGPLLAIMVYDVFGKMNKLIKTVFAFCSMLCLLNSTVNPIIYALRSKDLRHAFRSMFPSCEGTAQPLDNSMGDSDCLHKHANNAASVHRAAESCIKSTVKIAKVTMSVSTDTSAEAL
Sequence of CB1 receptor (human) (P21554 whole entry): as above

On Cannabinoid CB1 Receptor, `C[C@@H](NC(=O)c1nn(-c2ccc(Cl)cc2Cl)c2c1CN(S(C)(=O)=O)C/C2=C\c1ccc(F)cc1)C1CCCCC1` [Cpd 30, (7E)-1-(2,4-dichloro-phenyl)-7-(4-fluoro-benzylidene)-5-methanesulfonyl-4,5,6,7-tetrahydro-1H-pyrazolo[4,3-c]pyridine-3-carboxylic acid [(1R)-1-cyclohexyl-ethyl]-amide] registered a half-inhibitory concentration (IC50) of 7 nM. The inhibition at 0.2 µM on Cannabinoid CB2 Receptor was 1%. The compound further gave an EC50 on CB1 receptor (human) of 1 nM.
Take `Cc1ccc(S(=O)(=O)N2C/C(=C\c3ccc(F)cc3)c3c(c(C(=O)N[C@H](C)C4CCCCC4)nn3-c3ccc(Cl)cc3Cl)C2)cc1` [Cpd 31, (7E)-1-(2,4-dichloro-phenyl)-7-(4-fluoro-benzylidene)-5-(toluene-4-sulfonyl)-4,5,6,7-tetrahydro-1H-pyrazolo[4,3-c]pyridine-3-carboxylic acid [(1R)-1-cyclohexyl-ethyl]-amide]: the IC50 on Cannabinoid CB1 Receptor stood at 30 nM. For the same compound, the “Cannabinoid CB2 Receptor Binding percent inhibition” value at Cannabinoid CB2 Receptor (setting [1]) is listed as 29%. Also, it took 1100 nM to reach a half-maximal effect on CB1 receptor (human) (EC50).
For the compound `CCNC(=O)N1C/C(=C\c2ccc(F)cc2)c2c(c(C(=O)N[C@H](C)C3CCCCC3)nn2-c2ccc(Cl)cc2Cl)C1` [Cpd 32, (7E)-1-(2,4-dichloro-phenyl)-7-(4-fluoro-benzylidene)-1,4,6,7-tetrahydro-pyrazolo[4,3-c]pyridine-3,5-dicarboxylic acid 3-{[(1R)-1-cyclohexyl-ethyl]-amide} 5-ethylamide], the IC50 on Cannabinoid CB1 Receptor came out at 20 nM. Moreover, the inhibition at 0.2 µM at Cannabinoid CB2 Receptor stood at 6%. Also, a half-maximal effect at CB1 receptor (human) (EC50) was put at 3 nM.
Taken in the same sequence, the figures for `CS(=O)(=O)N1C/C(=C\c2ccc(F)cc2)c2c(c(C(=O)NN3CCCCC3)nn2-c2ccc(Cl)cc2Cl)C1` [Cpd 33, (7E)-1-(2,4-dichloro-phenyl)-7-(4-fluoro-benzylidene)-5-methanesulfonyl-4,5,6,7-tetrahydro-1H-pyrazolo[4,3-c]pyridine-3-carboxylic acid piperidin-1-ylamide] were 30 nM, 15% and 9 nM.
Taken in the same sequence, the figures for `CCNC(=O)N1C/C(=C\c2ccc(F)cc2)c2c(c(C(=O)NN3CCCCC3)nn2-c2ccc(Cl)cc2Cl)C1` [Cpd 34, (7E)-1-(2,4-dichloro-phenyl)-7-(4-fluoro-benzylidene)-1,4,6,7-tetrahydro-pyrazolo[4,3-c]pyridine-3,5-dicarboxylic acid 5-ethylamide 3-piperidin-1-ylamide] were 50 nM, 12% and 9 nM.
The corresponding values for `COc1ccc(/C=C2\CN(C(=O)OC(C)(C)C)Cc3c(C(=O)N[C@H](C)c4ccccc4)nn(-c4ccc(Cl)cc4Cl)c32)cc1` [Cpd 35, (7E)-1-(2,4-dichloro-phenyl)-7-(4-methoxy-benzylidene)-3-[(1R)-1-phenyl-ethylcarbamoyl]-1,4,6,7-tetrahydro-pyrazolo[4,3-c]pyridine-5-carboxylic acid tert-butyl ester] are 20 nM, 27% and 4 nM.
In turn, `COc1ccc(/C=C2\CN(C(=O)OC(C)(C)C)Cc3c(C(=O)NC(C)c4ccccn4)nn(-c4ccc(Cl)cc4Cl)c32)cc1` (stereo not drawn) [Cpd 36, (7E)-1-(2,4-dichloro-phenyl)-7-(4-methoxy-benzylidene)-3-(1-pyridin-2-yl-ethylcarbamoyl)-1,4,6,7-tetrahydro-pyrazolo[4,3-c]pyridine-5-carboxylic acid tert-butyl ester] came in with a half-inhibitory concentration (IC50) at Cannabinoid CB1 Receptor of 40 nM. Besides, the inhibition at 0.2 µM at Cannabinoid CB2 Receptor was determined as 27%. Besides, the EC50 on CB1 receptor (human) worked out at 6 nM.
Taken in the same sequence, the figures for `COc1ccc(/C=C2\CN(C(=O)OC(C)(C)C)Cc3c(C(=O)NN4CCCCC4)nn(-c4ccc(Cl)cc4Cl)c32)cc1` [Cpd 37, (7E)-1-(2,4-dichloro-phenyl)-7-(4-methoxy-benzylidene)-3-(piperidin-1-ylcarbamoyl)-1,4,6,7-tetrahydro-pyrazolo[4,3-c]pyridine-5-carboxylic acid tert-butyl ester] were 90 nM, 27% and 5 nM.
Taken in the same sequence, the figures for `COc1ccc(/C=C2\CNCc3c(C(=O)N[C@H](C)c4ccccc4)nn(-c4ccc(Cl)cc4Cl)c32)cc1` [Cpd 38, (7E)-1-(2,4-dichloro-phenyl)-7-(4-methoxy-benzylidene)-4,5,6,7-tetrahydro-1H-pyrazolo[4,3-c]pyridine-3-carboxylic acid [(1R)-1-phenyl-ethyl]-amide] were 10 nM, 25% and 5 nM.
As for `C[C@@H](NC(=O)c1nn(-c2ccc(Cl)cc2Cl)c2c1CN(S(=O)(=O)N(C)C)C/C2=C\c1ccc(F)cc1)c1ccccc1` [Cpd 39, (7E)-1-(2,4-dichloro-phenyl)-5-dimethylsulfamoyl-7-(4-fluoro-benzylidene)-4,5,6,7-tetrahydro-1H-pyrazolo[4,3-c]pyridine-3-carboxylic acid [(1R)-1-phenyl-ethyl]-amide], the IC50 on Cannabinoid CB1 Receptor was 2 nM. Besides, the inhibition at 0.2 µM at Cannabinoid CB2 Receptor (setting [1]) was determined as 42%. Moreover, the concentration for a half-maximal effect (EC50) at CB1 receptor (human) was determined as 1 nM.
Take `COc1ccc(/C=C2\CN(S(C)(=O)=O)Cc3c(C(=O)N[C@H](C)c4ccccc4)nn(-c4ccc(Cl)cc4Cl)c32)cc1` [Cpd 40, (7E)-1-(2,4-dichloro-phenyl)-5-methanesulfonyl-7-(4-methoxy-benzylidene)-4,5,6,7-tetrahydro-1H-pyrazolo[4,3-c]pyridine-3-carboxylic acid [(1R)-1-phenyl-ethyl]-amide]: the concentration for half-maximal inhibition (IC50) at Cannabinoid CB1 Receptor came to 2 nM. Besides, on Cannabinoid CB2 Receptor, the inhibition at 0.2 µM was determined as 47%. This compound returned an EC50 on CB1 receptor (human) of 1 nM.
The corresponding values for `CCNC(=O)N1C/C(=C\c2ccc(OC)cc2)c2c(c(C(=O)N[C@H](C)c3ccccc3)nn2-c2ccc(Cl)cc2Cl)C1` [Cpd 41, (7E)-1-(2,4-dichloro-phenyl)-7-(4-methoxy-benzylidene)-1,4,6,7-tetrahydro-pyrazolo[4,3-c]pyridine-3,5-dicarboxylic acid 5-ethylamide 3-{[(1R)-1-phenyl-ethyl]-amide}] are 9 nM, 27% and 0.2 nM.
The corresponding values for `COc1ccc(/C=C2\CN(C(C)=O)Cc3c(C(=O)N[C@H](C)c4ccccc4)nn(-c4ccc(Cl)cc4Cl)c32)cc1` [Cpd 42, (7E)-5-acetyl-1-(2,4-dichloro-phenyl)-7-(4-methoxy-benzylidene)-4,5,6,7-tetrahydro-1H-pyrazolo[4,3-c]pyridine-3-carboxylic acid [(1R)-1-phenyl-ethyl]-amide] are 5 nM, 38% and 1 nM.
Taken in the same sequence, the figures for `CCOC(=O)CN1C/C(=C\c2ccc(F)cc2)c2c(c(C(=O)N[C@H](C)c3ccccc3)nn2-c2ccc(Cl)cc2Cl)C1` [Cpd 43, (7E)-[1-(2,4-dichloro-phenyl)-7-(4-fluoro-benzylidene)-3-[(1R)-1-phenyl-ethylcarbamoyl]-1,4,6,7-tetrahydro-pyrazolo[4,3-c]pyridin-5-yl]-acetic acid ethyl ester] were 2 nM, 36% and 0.6 nM.
Consider `COC(=O)N1C/C(=C\c2ccc(OC)cc2)c2c(c(C(=O)N[C@H](C)c3ccccc3)nn2-c2ccc(Cl)cc2Cl)C1` [Cpd 44], for which the IC50 on Cannabinoid CB1 Receptor came out at 2 nM. For the same compound, on Cannabinoid CB2 Receptor, the inhibition at 0.2 µM worked out at 69%. Besides, the concentration for a half-maximal effect (EC50) at CB1 receptor (human) was 0.2 nM.
In turn, `COc1ccc(/C=C2\CN(C=O)Cc3c(C(=O)N[C@H](C)c4ccccc4)nn(-c4ccc(Cl)cc4Cl)c32)cc1` [Cpd 45, (7E)-1-(2,4-dichloro-phenyl)-5-formyl-7-(4-methoxy-benzylidene)-4,5,6,7-tetrahydro-1H-pyrazolo[4,3-c]pyridine-3-carboxylic acid [(1R)-1-phenyl-ethyl]-amide] came in with an IC50 on Cannabinoid CB1 Receptor of 3 nM. In addition, on Cannabinoid CB2 Receptor, the inhibition at 0.2 µM is 45%. In addition, a half-maximal effect on CB1 receptor (human) (EC50) was put at 0.1 nM.
The corresponding values for `C[C@@H](NC(=O)c1nn(-c2ccc(Cl)cc2Cl)c2c1CN(C=O)C/C2=C\c1ccc(F)cc1)c1ccccc1` [Cpd 46, (7E)-1-(2,4-dichloro-phenyl)-7-(4-fluoro-benzylidene)-5-formyl-4,5,6,7-tetrahydro-1H-pyrazolo[4,3-c]pyridine-3-carboxylic acid [(1R)-1-phenyl-ethyl]-amide] are 6 nM, 18% and 0.1 nM.
Taken in the same sequence, the figures for `CCOC(=O)CN1C/C(=C\c2ccc(OC)cc2)c2c(c(C(=O)N[C@H](C)c3ccccc3)nn2-c2ccc(Cl)cc2Cl)C1` [Cpd 48, (7E)-[1-(2,4-dichloro-phenyl)-7-(4-methoxy-benzylidene)-3-[(1R)-1-phenyl-ethylcarbamoyl]-1,4,6,7-tetrahydro-pyrazolo[4,3-c]pyridin-5-yl]-acetic acid ethyl ester] were 4 nM, 38% and 0.2 nM.
The corresponding values for `COc1ccc(/C=C2\CNCc3c(C(=O)NC(C)c4ccccn4)nn(-c4ccc(Cl)cc4Cl)c32)cc1` (stereo not drawn) [Cpd 49, (7E)-1-(2,4-dichloro-phenyl)-7-(4-methoxy-benzylidene)-4,5,6,7-tetrahydro-1H-pyrazolo[4,3-c]pyridine-3-carboxylic acid (1-pyridin-2-yl-ethyl)-amide] are 100 nM, 19% and 1 nM.
`COc1ccc(/C=C2\CNCc3c(C(=O)NN4CCCCC4)nn(-c4ccc(Cl)cc4Cl)c32)cc1` [Cpd 50, (7E)-1-(2,4-dichloro-phenyl)-7-(4-methoxy-benzylidene)-4,5,6,7-tetrahydro-1H-pyrazolo[4,3-c]pyridine-3-carboxylic acid piperidin-1-ylamide] yielded an IC50 on Cannabinoid CB1 Receptor of 100 nM. On Cannabinoid CB2 Receptor, the inhibition at 0.2 µM was determined as 20%. At CB1 receptor (human), this compound came in with a concentration for a half-maximal effect (EC50) of 2 nM.

In general, IC50 refers to the concentration that gives 50% inhibition. As usually defined, the inhibition is the change of the read-out against control, counted positive when it falls. In general, EC50 refers to the concentration that produces a half-maximal response. Read a low EC50 as an effect from little substance.
